Where “and” joins values, the source holds several entries; their conditions need not be identical. Identical values can stand only once.
Columns and labels:
[1] = tested on: Ras; test: GST-Raf1-RBD pull-down of EGFR-mediated Ras activation; type: cell-based, human; details: for Ras-GTP over total Ras, GST-Raf1-RBD pull-down, EGFR: Comp 21 50 μM, individual experiments
From the text: Since 21 inhibited both ERK1/2 and Akt activation by GPCRs and EGFR, we looked at a common target involved in both pathways. The small G protein Ras is an upstream regulator of both Ras-RAF-MEK-ERK and PI3K/Akt signaling pathways[35],[36]. Therefore, we explored 21’s ability to inhibit Ras activity using GST-Raf1-Ras-binding domain (RBD) in a pull-down assay. A reduction of 60% in GTP-bound Ras was noticed in pulled-down from cells treated with 21 and stimulated with either AT1R or EGFR, as compared to vehicle-treated cells (Fig. 4a, b). Complementary to this in vitro assay, we generated a Ras BRET assay, using the Raf-Ras binding domain tagged with RlucII (Raf1-RBD-RlucII) and the rGFP at the PM (rGFP-CAAX) (Supplementary Fig. 3c), to assess 21’s effects on Ras activation kinetics. […] Overexpression of either the active form of Ras (G12V) or SOS1 anchored at the PM (SOS-CAAX) produced a robust basal BRET signal that was no longer modulated by receptor activation (Supplementary Fig. 3d). […] 21’s potency to inhibit ARF6 and Ras is also consistent with its relative efficacy for inhibiting AT1R internalization and MAPK, respectively, when used at 50 μM (e.g., around 7 and 70 times the respective IC50s) (Figs. 2e and 3a). We also assessed if 21 was acting as a pan small G protein inhibitor by testing its effect on Rho and Rac/Cdc42. […] To assess Rac/Cdc42 activity, we generated a Rac/Cdc42 BRET sensor that consisted of the PAK-CRIB domain fused to RlucII (PAK-CRIB-RlucII) and the rGFP-CAAX (Supplementary Fig. 3e). PAK-CRIB, which binds to active Rac/Cdc42, was recruited to the PM upon AngII stimulation of cells and generated a robust BRET signal, which was blocked by the overexpression of the DN Rac1-T17N. Overexpression of the constitutively active Rac1-Q61L increased the basal BRET, which was no longer modulated by AT1R stimulation (Supplementary Fig. 3f).
Activation of ARF1, ARF6, Ras, and Rho were assessed by using GST pull-down assays. […] ImageLab 5.2 software was used to quantify the digital blots as fold of the amount of pulled down protein over total protein. […]

[2] = tested on: B2R; test: Confocal microscopy of YFP-tagged B2R internalization; type: cell-based, human; details: 50 μM; BK
Method: One day before transfection, cells were seeded in 35-mm glass-bottom dishes (MatTek Corporation) at a density of 1 × 10^5 cells per dish. For the recordings of receptor internalization, HEK293 SL cells were transfected with 2 μg of AT1R-YFP. For the recordings of β-arrestin-2 recruitment to the receptor, HEK293SL cells were transfected with 50 ng of β-arrestin2-YFP and 250 ng of Flag-AT1R or HA-B2R. Forty-eight hours post-transfection, cells were serum starved, preincubated with DMSO (0.1% final concentration) or Rasarfin (50 μM) for 30 min at 37 °C. AT1R-expressing cells were stimulated with angiotensinII (AngII; 100 nM) and B2R-expressing cells were stimulated with bradykinin (BK; 1 μM) for 30 min (receptor-YFP) or 15 min (β-arrestin2-YFP). Cells were imaged with Zeiss LSM-510 and/or LSM-710 laser scanning confocal microscope. To detect YFP, […] and BP 505–550 nm emission filter. Images (2048 × 2048) were collected using a 63x oil immersion lens.

CC(C)C(=O)N1CCN(c2ccc(NC(=O)c3cc4ccccc4o3)cc2Cl)CC1 [Compound 21]
reduction in GTP-bound Ras, EGFR-stimulated cells (pull-down) ([1]; 50 μM, compared to vehicle-treated cells): 60% | Ras-GTP over total Ras, GST-Raf1-RBD pull-down, EGFR ([1]; Ctrl (no EGF)): 0.1945 and 0.09698 and 0.1503 | Ras-GTP over total Ras, GST-Raf1-RBD pull-down, EGFR ([1]; EGF): 1.319 and 0.978 and 0.8185 | B2R localization by microscopy [2]: remained trapped at the PM
